# Literature values, collected in patent publication US12127968B2, “Methods and devices for controlled delivery” (Femasys Inc., priority 2018, dated 2024).
# Where a name gives a salt, the structure may show the parent alone.
# Tested on: ovulation
# Details: patients whose only factor is ovulatory dysfunction
smiles,measurement,value
CCN(CC)CCOc1ccc(C(=C(Cl)c2ccccc2)c2ccccc2)cc1 [Clomiphene citrate],patients in whom normal ovulation is restored,about 80%
